The text below walks through data of patent publication US6514997B2, “Antipicornaviral compounds and compositions, their pharmaceutical uses, and materials for their synthesis” (Agouron Pharmaceuticals, Inc., priority 1999, dated 2003).

In data set [1] the test system is echovirus 6 (ECHO-6). The data set is described as follows: Anti-echoviral cell culture assay (EC50), ECHO-6. It counts as cell-based. The following applies: Enterovirus B.
Data set [2] deals with MRC-5 cells. Put plainly: Cytotoxicity (CC50) in uninfected MRC-5 cells, XTT dye reduction. It counts as cell-based, human. The essentials: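 MRC-5 cells in MEM with 10% FBS, infected at m.o.i. 0.003 or 0.004 or mock-infected, seeded 1×10^4 cells/well with compound for four days. Protection and cytotoxicity read by XTT/PMS formazan at 450/650 nm. TI = CC50/EC50.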
On the technique in general: Tetrazolium dyes change colour on reduction, which living cells bring about.

In data set [3] the test system is Echovirus type 11 (ECHO 11). Put plainly: Anti-echoviral cell culture assay (XTT, EC50), ECHO 11. In kind it is cell-based, echovirus 11 in MRC-5 cells. The following applies: Enterovirus B. As for the experimental part:
Anti-Echoviral and Anti-Enteroviral Cell Culture Assays
Echovirus type 11 (ECHO 11) was purchased from ATCC (Rockville, Md.). Virus stocks were propagated and antiviral assays were performed in MRC-5 cells (ATCC). Cells were grown in minimal essential medium with 10% fetal bovine serum (Life Technologies, Gaithersburg, Md.). The ability of the compounds of this invention to protect cells against ECHO 11 infection was measured by the XTT dye reduction method (Weislow et al., J. Natl. Cancer Inst. (1989), vol. 81, 577-586). MRC-5 cells were infected with ECHO 11 at an m.o.i. of 0.003 or 0.004, respectively, or mock-infected with medium only. Infected or uninfected cells were added at 1×10^4 cells per well and incubated with appropriate concentrations of compound. Four days later, XTT/PMS was added to test plates, and the amount of formazan produced was quantified spectrophotometrically at 450/650 nm. […] The therapeutic index (TI) was calculated by dividing the CC50 by the EC50. Activity of the compounds against enterovirus type 70 (EV 70) may be measured by the same assay as described above in this section. Enterovirus type 70 (EV 70) may be obtained from the American Type Culture Collection ATCC (Rockville, Md.).

Data set [4] has as its system coxsackievirus B2 (CVB2). The data set is described as follows: Antiviral cell culture assay (EC50), coxsackievirus B2. It counts as cell-based. The following applies: Enterovirus B.
Data set [5] deals with echovirus 9 (ECHO-9). Put plainly: Antiviral cell culture assay (EC50), echovirus 9. It counts as cell-based. The following applies: Enterovirus B; ECHO9.
Data set [6] can be described thus: Cytotoxicity (CC50), cell line not stated. It counts as cell-based.
In data set [7] the test system is coxsackievirus B5 (CVB5). Put plainly: Antiviral cell culture assay (EC50), coxsackievirus B5. In kind it is cell-based. Particulars: Enterovirus B.

In the case of `CCOC(=O)/C=C/[C@H](C[C@@H]1CCNC1=O)NC(=O)[C@H](CC)n1cccc(NC(=O)c2cc(C)on2)c1=O` [Compound 26, trans-(2′S,3″″S,4S)-4-(2′-{3″-[(5′″-Methylisoxazole-3′″-carbonyl)amino]-2″-oxo-2″H-pyridin-1″-yl}butyrylamino)-5-(2″″-oxopyrrolidin-3″″-yl)pent-2-enoic Acid Ethyl Ester], the EC50 in data set [1] turned out to be 17 nM; in data set [3] it was 36 nM. In addition, the cytotoxic concentration (CC50) in data set [2] (line of ECHO-6) and in data set [2] (line of ECHO-9) was greater than 10000 nM in each case.
With `C#CC[C@@H](C(=O)N[C@H](/C=C/C(=O)OCC)C[C@@H]1CCNC1=O)n1cccc(NC(=O)c2cc(C)on2)c1=O` [Compound 31, trans-(2′S,3″″S,4S)-4-(2′-{3″-[(5′″-Methyl-isoxazole-3′″-carbonyl)amino]-2″-oxo-2″H-pyridin-1″-yl}pent-4′-ynoyl-amino)-5-(2″″-oxopyrrolidin-3″″-yl)pent-2-enoic Acid Ethyl Ester], the EC50 stood at 21 nM in data set [1] and 13 nM in data set [3]. Also, the CC50 in data set [2] (line of ECHO-9) and in data set [2] (line of ECHO-11) was greater than 10000 nM in each case.
On to `CCOC(=O)/C=C/[C@H](C[C@@H]1CCNC1=O)NC(=O)[C@H](Cc1ccc(F)c(F)c1)n1cccc(NC(=O)c2cc(C)on2)c1=O` [Compound 33, trans-(2′S,3′″″S,4S)-4-(3′-(3″,4″-Difluorophenyl)-2′-{3′″-[(5″″-methylisoxazole-3″″-carbonyl)amino]-2′″-oxo-2′″H-pyridin-1′″-yl}propionylamino)-5-(2′″″-oxopyrrolidin-3′″″-yl)pent-2-enoic Acid Ethyl Ester], for which the concentration giving a half-maximal response (EC50) came to 15 nM in data set [1] and 16 nM in data set [3]. Moreover, the CC50 in data set [2] (line of ECHO-6) and in data set [2] (line of ECHO-9) was greater than 10000 nM in each case.
For `C#CC[C@@H](C(=O)N[C@H](/C=C/C(=O)OC(C)(C)C)C[C@@H]1CCNC1=O)n1cccc(NC(=O)c2cc(C)on2)c1=O` [Compound 41, trans-(2′S,3′″″S,4S)-4-[2′-(3″-{[1′″-(5″″-Methylisoxazol-3″″-yl)methanoyl]amino}-2′″-oxo-2′″H-pyridin-1′″-yl)pent-4″-ynoylamino]-5-(2′″″-oxopyrrolidin-3′″″-yl)pent-2-enoic Acid tert-Butyl Ester], the melting point is 195 °C (dec.). The compound also displayed an EC50 in data set [1] of 147 nM. This compound also gave a CC50 in data set [2] (line of ECHO-6) greater than 10000 nM. This compound also yielded a CC50 in data set [2] (line of ECHO-9) greater than 10000 nM. In data set [3], this compound yielded an EC50 of 186 nM.
For the compound `CC[C@@H](C(=O)N[C@H](/C=C/C(=O)OCc1ccccc1)C[C@@H]1CCNC1=O)n1cccc(NC(=O)c2cc(C)on2)c1=O` [Compound 62, trans-(2′S,3′″″S,4S)-4-[2′-(3″-{[1′″-(5″″-Methylisoxazol-3″″-yl)methanoyl]amino}-2′″oxo-2′″H-pyridin-1′″-yl)butanoylamino]-5-(2′″″-oxopyrrolidin-3′″″-yl)pent-2-enoic Acid Benzyl Ester], the EC50 in data set [4] came to 16 nM; in data set [5], 4 nM; in data set [7], 20 nM. Further, the CC50 in data set [6] (CVB2), in data set [6] (CVB5) and in data set [6] (ECHO9) was greater than 10000 nM each time.
Take `C#CC[C@@H](C(=O)N[C@H](/C=C/C(=O)OCc1ccccc1)C[C@@H]1CCNC1=O)n1cccc(NC(=O)c2cc(C)on2)c1=O` [Compound 63, trans-(2′S,3′″″S,4S)-4-[2′-(3″-{[1′″-(5″″-Methylisoxazol-3″″-yl)methanoyl]amino}-2′″-oxo-2′″H-pyridin-1′″-yl)pent-4″-ynoylamino]-5-(2′″″-oxopyrrolidin-3′″″-yl)pent-2-enoic Acid Benzyl Ester]: the EC50 in data set [4] came to 12 nM; in data set [5], 2 nM; in data set [7] it was 10 nM. Also, the CC50 in data set [6] (CVB2), in data set [6] (CVB5) and in data set [6] (ECHO9) was greater than 10000 nM each time.

For orientation: EC50 means the midpoint of the concentration-response curve. The term CC50 denotes the concentration that lowers cell viability or growth by half. The melting point is the temperature of the solid-liquid transition.
